Experimental data taken from patent publication US20250002954A1, “Novel Compound, Use Thereof, and Method for Producing Same, and Compound-Containing Composition, Method for Producing 4-Trehalosamine, and Microorganism” (Microbial Chemistry Research Foundation, priority 2021, published 2025).

Columns and labels:
[1] = system: baker's yeast (Saccharomyces cerevisiae F-7); test: Evaluation of baker's yeast protective activity in freeze-dried condition; assay type: cell-based; conditions: for Numbers of live bacterial cells (relative numbers): baker's yeast freeze-dried with 6% aqueous solution (final concentration 3%), test sample 3 (FD) = 1
Method: Using test samples 1 to 8 containing baker's yeast prepared in the following manner, microorganism-protective activity with various kinds of sugar in a freeze-dried condition was evaluated.
Frozen stock of baker's yeast (Saccharomyces cerevisiae F-7, owned by the Microbial Chemistry Research Foundation) was inoculated in 10 mL of YPD culture fluid (1% yeast extract, 2% polypeptone, 2% glucose) and cultured at 27° C. for 2 days while shaking it at 220 rpm. After culture, it was centrifuged at 1,000×g for 5 minutes, washed once with 10 mL of water, and then suspended in 10 mL of water, thus obtaining yeast suspension. 50 μL of water was added to and mixed with 50 μL of this yeast suspension and the mixture was left to stand at 4° C. for 12 hours, preparing control (NF).
After yeast suspension was prepared in a similar manner to test sample 1, 50 µL of 6% aqueous solution of trehalose was added to and mixed with 50 μL of the yeast suspension, and the mixture was frozen at −80° C. for 1 hour. It was then freeze-dried for 12 hours with a freeze dryer (FLEXI-DRY, manufactured by FTS systems INC., Warminster) connected to a vacuum pump (P65D, manufactured by PHIL Sato Vac INC.), preparing freeze-dried product (TRH) of yeast with TRH.
Freeze-dried product (4TA) of yeast with 4TA was obtained in a similar manner to the preparation method of test sample 4 except that trehalose was changed to 4-trehalosamine (4TA) in the preparation method of test sample 4.
Freeze-dried product (MLT) of yeast with MLT was obtained in a similar manner to the preparation method of test sample 4 except that trehalose was changed to maltose (MLT) in the preparation method of test sample 4.
Freeze-dried product (SCR) of yeast with SCR was obtained in a similar manner to the preparation method of test sample 4 except that trehalose was changed to sucrose (SCR) in the preparation method of test sample 4.
Freeze-dried product (GOL) of yeast with GOL was obtained in a similar manner to the preparation method of test sample 4 except that trehalose was changed to glycerol (GOL) in the preparation method of test sample 4.
For test samples 1 and 2, serial suspensions were made by diluting them to 1/10 with saline. 100 μL of water was added to each of the freeze-dried products of test samples 3 to 8 and diluted to 1/10 with saline to make their serial suspensions. 60 μL of water was added to 30 μL of each diluted solution.
In a 6-well microplate, 2% Agar-YPD was prepared at 3 mL/well, and 90 μL of each diluted solution was inoculated on the 2% Agar-YPD and cultured at 30° C. for two days.
Wells in which the number of colonies was measurable were selected and the numbers (relative numbers) of live bacterial cells per well on test samples 1, 2, and 4 to 8 when the number of live bacterial cells per well on test sample 3 (FD) was “1” were calculated in consideration of the dilution concentrations of those test samples.

[2] = biological target: T1, bovine alkaline phosphatase (CIP) (Bos taurus, UniProt P19111); test: Evaluation of CIP-protective activity under freeze-dried condition; assay type: biochemical; conditions: for CIP activity after freeze-drying: freeze-dried with 3% additive
T1 construct: purchased New England Biolabs
Method: Test samples 1 to 12 containing bovine alkaline phosphatase (CIP) were prepared as follows and protein-protective activity of various kinds of added sugar under freeze-dried condition was evaluated.
After bovine alkaline phosphatase (10 units/μL, manufactured by New England Biolabs) was diluted to 1/40 with TBS (manufactured by Takara Bio Inc.), it was subjected to dialysis for 2 hours at 4° C. within TBS of an amount 1,000 times the diluted enzyme solution to remove glycerol. 40 μL of TBS containing 2% trehalose (TRH) was added to and mixed with 40 μL of the enzyme solution after dialysis and the mixture was frozen at −80° C. for 10 minutes. It was then freeze-dried for 20 hours with a freeze dryer (FLEXI-DRY, manufactured by FTS systems INC., Warminster) connected to a vacuum pump (P65D, manufactured by PHIL Sato Vac INC.), preparing freeze-dried product of enzyme with 1% TRH.
Freeze-dried product of enzyme with 3% TRH was prepared in a similar manner to the preparation method of test sample 4 except that the final concentration of trehalose was changed to 3% in the preparation method of test sample 4. […]
Freeze-dried product of enzyme with 3% 4TA was prepared in a similar manner to the preparation method of test sample 5 except that trehalose was changed to 4-trehalosamine (4TA) in the preparation method of test sample 5. […]
Freeze-dried product of enzyme with 3% MLT was prepared in a similar manner to the preparation method of test sample 5 except that trehalose was changed to maltose (MLT) in the preparation method of test sample 5. […]
Freeze-dried product of enzyme with 3% SCR was prepared in a similar manner to the preparation method of test sample 5 except that trehalose was changed to sucrose (SCR) in the preparation method of test sample 5.
Freeze-dried product of enzyme with 3% GOL was prepared in a similar manner to the preparation method of test sample 5 except that trehalose was changed to glycerol (GOL) in the preparation method of test sample 5.
80 μL of water was added to each of the freeze-dried products of test samples 3 to 12 and the mixture was diluted to 1/100 with TBS. Test samples 1 and 2 were diluted to 1/100 with TBS. 10 μL of each of the diluted test samples 1 to 12 and 20 μL of 0.1 M p-nitrophenylphosphate (pNPP)-TBS solution were added to 70 μL of TBS, and enzyme reaction was left to take place at 37° C. for 1 hour. After the reaction, absorbance at 420 nm was measured with a microplate reader (Cytation5, manufactured by Bio Tek Instruments) and CIP activity was measured by the amount of p-nitrophenol as enzyme reaction product (n=3, mean±S.D.).

T1 sequence (P19111 20-506): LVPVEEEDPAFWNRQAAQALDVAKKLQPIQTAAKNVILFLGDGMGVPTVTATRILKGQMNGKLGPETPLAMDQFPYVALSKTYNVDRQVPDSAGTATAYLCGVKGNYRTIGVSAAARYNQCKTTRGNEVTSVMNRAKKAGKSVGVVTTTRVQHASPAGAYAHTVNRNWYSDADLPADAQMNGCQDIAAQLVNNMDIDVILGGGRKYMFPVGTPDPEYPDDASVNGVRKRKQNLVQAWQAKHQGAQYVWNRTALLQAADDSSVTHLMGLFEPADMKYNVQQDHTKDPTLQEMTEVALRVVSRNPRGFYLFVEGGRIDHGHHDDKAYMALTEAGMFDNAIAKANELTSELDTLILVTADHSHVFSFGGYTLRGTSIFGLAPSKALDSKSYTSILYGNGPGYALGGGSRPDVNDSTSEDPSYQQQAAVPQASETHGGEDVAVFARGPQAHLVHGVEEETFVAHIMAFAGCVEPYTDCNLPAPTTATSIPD

Compound	Numbers of live bacterial cells (relative numbers) [1]	CIP activity after freeze-drying [2]	protective effect on microorganisms, comparison ([1]; baker's yeast, freeze-dried)	CIP protection effect compared to other sugars ([2]; freeze-dried)
OCC(O)CO [GOL, glycerol]	0	enzyme activity significantly dropped	–	–
OC[C@H]1O[C@H](O[C@H]2[C@H](O)[C@@H](O)C(O)O[C@@H]2CO)[C@H](O)[C@@H](O)[C@@H]1O (mixture of isomers) [maltose]	10	good activity was maintained	–	–
OC[C@H]1O[C@H](O[C@H]2O[C@H](CO)[C@@H](O)[C@H](O)[C@H]2O)[C@H](O)[C@@H](O)[C@@H]1O [trehalose, reference compound]	100	good activity was maintained	–	–
OC[C@H]1O[C@@](CO)(O[C@H]2O[C@H](CO)[C@@H](O)[C@H](O)[C@H]2O)[C@@H](O)[C@@H]1O [sucrose]	10	good activity was maintained	–	–
N[C@H]1[C@H](O)[C@@H](O)[C@@H](O[C@H]2O[C@H](CO)[C@@H](O)[C@H](O)[C@H]2O)O[C@@H]1CO [4-trehalosamine]	100	good activity was maintained	stronger than when maltose or sucrose was added	high compared to the other sugars
